Source: US9879050B2, “Substituted urea depsipeptide analogs as activators of the CLPP endopeptidase” (priority 2013, dated 2018)
Values after ≈ are worked out from the molar mass of the structure shown. Like-named read-outs stand apart in the source and are kept apart here.

Tests used:
B. subtilis ATCC 23857 = test: Minimal inhibitory concentration, microbroth dilution; assay type: cell-based
Summary of the method: (§1)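 Following CLSI M7-A7 microbroth dilution, twofold serial dilutions of compound (top final concentration 200 μM) were combined with an equal volume of broth inoculum at about 10^5 cfu/mL. Plates were incubated aerobically at 37 °C overnight, and the MIC was the lowest concentration preventing visible growth.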

S. aureus USA 300 = test: as above; assay type: cell-based; settings: Staphylococcus aureus, USA300; read-out: Minimal Inhibitory Concentration S. aureus USA 300
Summary of the method: as §1

S. aureus ATCC 29213 = test: as above; assay type: cell-based
Summary of the method: as §1

S. aureus NRS70 = test: as above; assay type: cell-based; settings: Staphylococcus aureus, NRS70; read-out: Minimal Inhibitory Concentration S. aureus NRS70
Summary of the method: as §1

S. aureus USA 300 ΔClpP = test: as above; assay type: cell-based, Staphylococcus aureus; settings: ClpP inactivated strain
Summary of the method: as §1

S. pyogenes ATCC 700294 = test: as above; assay type: cell-based
Summary of the method: (§2)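 Twofold serial dilutions in broth per CLSI M7-A7 microbroth dilution, incubated aerobically overnight at 37° C. MIC read visually as lowest concentration preventing bacterial growth.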

S. pneumoniae R6 = test: as above; assay type: cell-based; settings: Streptococcus pneumoniae, R6; read-out: Minimal Inhibitory Concentration S. pneumoniae R6
Summary of the method: as §2

S. pneumoniae DAW27 = test: as above; assay type: cell-based; settings: Streptococcus pneumoniae, DAW27, read-out: Minimal Inhibitory Concentration S. pneumoniae DAW27
Summary of the method: as §1

E. faecails ATCC 33186 = test: as above; assay type: cell-based; settings: Enterococcus faecalis, ATCC33186, read-out: Minimal Inhibitory Concentration E. faecails ATCC 33186
Summary of the method: as §1

S. aureus ClpP (Sa-ClpP) = target: T1, S. aureus ClpP (Sa-ClpP) (Staphylococcus aureus, UniProt Q2G036); test: ClpP activation, casein-BODIPY digestion assay (first described method); assay type: biochemical; settings: first described ClpP activation assay (**); 10 μM saClpP, 25 μg/ml BODIPY FL casein, 37° C.; read-out: ClpP Activation EC50
T1 construct: made in house; host or cells: E. coli BL21 (DE3)
Procedure: The compounds were assayed in a casein digestion assay in order to determine their effect on ClpP activation. Briefly, the assay was carried out using S. aureus ClpP (“Sa-ClpP”) overexpressed in E. coli BL21 (DE3) and purified in a two-step process. Purity of the protein was assessed through SDS PAGE analysis. EC50 evaluations were conducted in triplicate in a 20 μl assay format using a method adapted from Maurizi et al. (Methods Enzymol. (1994) 244:314-331.). Each well contained 10 μM saClpP, 25 μg/ml BODIPY FL casein (Invitrogen Corporation, San Diego, Calif.), and test compound in concentrations ranging between 0-100 μM in assay buffer (50 mM Tris pH 8, 200 mM KCl, and 1 mM TCEP). The reaction took place at 37° C. Fluorescence (excitation 485 nm; emission 528 nm) was measured in five minute intervals over a 45 min period using a BioTek HT fluorescence microplate reader (BioTek Instruments, Inc., Winooski, Vt.). Velocity of each reaction was calculated and data was fit to a dose response curve using GraphPad Prism® software (GraphPad Software, Inc., La Jolla, Calif.). EC50 is the effective concentration of compound which causes 50% activation of S. aureus ClpP in the foregoing BODIPY FL casein assay.

[1] = Cytotoxicity assay, CellTiter-Glo cell viability; assay type: cell-based; settings: African green monkey
Summary of the method: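 Vero cells seeded overnight at 37 °C in DMEM with 10% FBS, then exposed to serial dilutions of compound for 72 h. Viability read by CellTiter-Glo luminescence; IC50 from duplicates, given as the range of two independent experiments.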

Sa-ClpP [2] = target: T2, Sa-ClpP (Staphylococcus aureus, UniProt Q2G036); test: ADEP displacement fluorescence polarization assay; assay type: binding, S. aureus; settings: 1 μM Sa-ClpP, 50 nM FP probe ADEP 2591; read-out: ADEP Displacement IC50
T2 construct: made in house; host or cells: E. coli BL21 (DE3)
Summary of the method: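 Displacement of TAMRA-labelled ADEP 2591 probe (50 nM) from 1 μM Sa-ClpP, pre-equilibrated 1 h in Tris·HCl pH 8.0 with 2% DMSO, then 120 min at room temperature with compound, triplicate. Polarization (mP) read ex 530/em 579 nm, normalised to 20 μM ADEP 2378 and DMSO controls; four-parameter fit.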

E. coli K12ΔtolC = test: Minimal inhibitory concentration, microbroth dilution; assay type: cell-based
Summary of the method: as §1

Sa-ClpP [3] = target: T2, Sa-ClpP; test: ClpP activation, EnzCheck Protease Assay with Bodipy-FL casein (second described method); assay type: biochemical, S. aureus; settings: read-out: ClpP Activation EC50 (converted)
Summary of the method: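 Sa-ClpP (2 μM in master mix) with Bodipy-FL casein (2 μM in master mix) in Tris-HCl pH 8.0, 0.01% Triton X-100, compounds in 2% DMSO, triplicate. Fluorescence (ex 485/em 520 nm) followed 30 min; degradation slopes normalized to ADEP4 and DMSO controls, EC50 and % activation by four-parameter fit.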

T1 sequence (Q2G036 whole entry): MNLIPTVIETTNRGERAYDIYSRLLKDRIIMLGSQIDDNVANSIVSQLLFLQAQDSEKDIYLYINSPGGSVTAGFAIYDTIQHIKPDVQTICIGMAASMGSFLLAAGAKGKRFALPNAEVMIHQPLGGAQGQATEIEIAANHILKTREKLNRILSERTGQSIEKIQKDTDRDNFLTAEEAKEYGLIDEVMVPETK
T2 sequence (Q2G036 whole entry): as above

SMILES	Minimal Inhibitory Concentration S. aureus USA 300 ΔClpP (S. aureus USA 300 ΔClpP)	EC50 (S. aureus ClpP (Sa-ClpP))	IC50 (Sa-ClpP [2])	Minimal Inhibitory Concentration E. coli K12ΔtolC (E. coli K12ΔtolC)	IC50 at 72 h [1]	EC50 (Sa-ClpP [3])	also measured
CCc1ccc(NC(=O)N[C@@H](Cc2cc(F)cc(F)c2)C(=O)N[C@@H]2C(=O)N3CCCC3C(=O)N(C)[C@@H]([C@H](C)O)C(=O)N[C@@H](C)C(=O)N3C[C@@H](C)CC3C(=O)O[C@H]2C)cc1 (stereo partly drawn) [Compound 37, (S)-3-(3,5-Difluorophenyl)-2-(3-(4-Ethylphenyl)Ureido)-N-((2S,6S,9S,11aS,17S,18S,20aS)-9-((S)-1-Hydroxyethyl)-2,6,10,18-Tetramethyl-5,8,11,16,20-Pentaoxohexadecahydro-1H,5H,16H-Dipyrrolo[2,1-C:2′,1′-L][1]Oxa[4,7,10,13]Tetraazacyclohexadecin-17-Yl)Propanamide]	100 µM						MIC (B. subtilis ATCC 23857; Bacillus subtilis, ATCC23857; read-out: Minimal Inhibitory Concentration B. subtilis ATCC 23857): 0.05 µM (≈ 0.0413 µg/mL); MIC (S. aureus USA 300): 0.1 µM (≈ 0.0826 µg/mL); MIC (S. aureus ATCC 29213; Staphylococcus aureus, ATCC29213; read-out: Minimal Inhibitory Concentration S. aureus ATCC 29213): 0.1 µM (≈ 0.0826 µg/mL); MIC (S. aureus NRS70): 0.1 µM (≈ 0.0826 µg/mL); MIC (S. pyogenes ATCC 700294; Streptococcus pyogenes, ATCC700294; read-out: Minimal Inhibitory Concentration S. pyogenes ATCC 700294): 0.1 µM (≈ 0.0826 µg/mL); MIC (S. pneumoniae R6): 0.024 µM (≈ 0.0198 µg/mL)
C[C@@H]1C[C@H]2C(=O)OC[C@H](NC(=O)[C@H](Cc3ccccc3)NC(=O)Nc3ccc4ccn(C)c4c3)C(=O)N3CCC[C@H]3C(=O)N3CCCC[C@H]3C(=O)N[C@@H](C)C(=O)N2C1 [Compound 12, (S)—N-((2R,6S,8aS,14aS,20S,23aS)-2,6-Dimethyl-5,8,14,19,23-Pentaoxooctadecahydro-1H,5H,14H,19H-Pyrido[2,1-I]Dipyrrolo[2,1-C:2′,1′-L][1]Oxa[4,7,10,13]Tetraazacyclohexadecin-20-Yl)-2-(3-(1-Methyl-1H-Indol-6-Yl)Ureido)-3-Phenylpropanamide]		3.2 ± 0.5 µM	6.81 ± 0.4 µM				MIC (B. subtilis ATCC 23857; Bacillus subtilis, ATCC23857, read-out: Minimal Inhibitory Concentration B. subtilis ATCC 23857): 2.5 µM (≈ 1.99 µg/mL); MIC (S. pneumoniae DAW27): 0.3 µM (≈ 0.239 µg/mL); MIC (E. faecails ATCC 33186): 1.25 µM (≈ 0.996 µg/mL); MIC (S. aureus ATCC 29213; Staphylococcus aureus, ATCC29213, read-out: Minimal Inhibitory Concentration S. aureus ATCC 29213): 2.5 µM (≈ 1.99 µg/mL); IC50 at 72 h ([1]; Vero cells, 72 hours, read-out: Cytotoxicity IC50): 90 ± 7.6 µM; MIC (S. pyogenes ATCC 700294; Streptococcus pyogenes, ATCC700294, read-out: Minimal Inhibitory Concentration S. pyogenes ATCC 700294): 0.6 µM (≈ 0.478 µg/mL)
O=C(N[C@H](CO)[C@H](O)c1ccc([N+](=O)[O-])cc1)C(Cl)Cl [Chloroamphenicol, chloramphenicol, reference compound]	6.3 µM			0.78 µM			
C[C@@H]1C[C@H]2C(=O)OC[C@H](NC(=O)[C@H](Cc3ccccc3)NC(=O)Nc3ccc(OC(F)(F)F)cc3)C(=O)N3CCC[C@H]3C(=O)N3CCCC[C@H]3C(=O)N[C@@H](C)C(=O)N2C1 [Compound 2, (S)—N-((2R,6S,8aS,14aS,20S,23aS)-2,6-Dimethyl-5,8,14,19,23-Pentaoxooctadecahydro-1H,5H,14H,19H-Pyrido[2,1-I]Dipyrrolo[2,1-C:2′,1′-L][1]Oxa[4,7,10,13]Tetraazacyclohexadecin-20-Yl)-3-Phenyl-2-(3-(4-(Trifluoromethoxy)Phenyl)Ureido)Propanamide]		2.6 ± 0.4 µM	7.66 ± 0.3 µM	12.5 µM	88.3 ± 15.2 µM	0.5 µM	
COc1cccc(NC(=O)N[C@@H](Cc2ccccc2)C(=O)N[C@H]2COC(=O)[C@@H]3C[C@@H](C)CN3C(=O)[C@H](C)NC(=O)[C@@H]3CCCCN3C(=O)[C@@H]3CCCN3C2=O)c1 [Compound 8, (S)—N-((2R,6S,8aS,14aS,20S,23aS)-2,6-Dimethyl-5,8,14,19,23-Pentaoxooctadecahydro-1H,5H,14H,19H-Pyrido[2,1-I]Dipyrrolo[2,1-C:2′,1′-L][1]Oxa[4,7,10,13]Tetraazacyclohexadecin-20-Yl)-2-(3-(3-Methoxyphenyl)Ureido)-3-Phenylpropanamide]		3 ± 0.4 µM	16.3 ± 0.8 µM	200 µM	> 100 µM	1.3 µM	
